Source: BindingDB's records for doi:10.1021/jm00147a033 (1985)

Key:
[1] = Compound was evaluated for reversible inhibition of hydrolysis acetylcholine by acetylcholinesterase and represented as KI(noncompetitive)
[2] = Compound was evaluated for reversible inhibition of hydrolysis acetylcholine by acetylcholinesterase and represented as KI(competitive)
[3] = Compound was evaluated for reversible inhibition of hydrolysis of acetylcholine by acetylcholinesterase and represented as KI(competitive)
[4] = Compound was evaluated for reversible inhibition of hydrolysis acetylcholine by acetylcholinesterase and represented as KI(competitive); remark: listed apart in the source

Structure (SMILES): CS(=O)(=O)CCO [2-Methanesulfonyl-ethanol]
- Ki [1]: 100 mM
- Ki [2]: 8.7 mM

Structure (SMILES): C[Si](C)(C)CCO [2-Trimethylsilanyl-ethanol]
- Ki [2]: 3.3 mM

Structure (SMILES): C[N+](C)(C)CCO [2-hydroxy-N,N,N-trimethylethanaminium]
- Ki [1]: 7.6 mM

Structure (SMILES): CC(C)(C)CCO [3,3-Dimethyl-butan-1-ol]
- Ki [1]: 19 mM

Structure (SMILES): CC(=O)CCC[N+](C)(C)[O-] [5-dimethylamino-2-pentanone-N-oxide]
- Ki [3]: 14 mM

Structure (SMILES): CS(C)(I)CCO [(2-Hydroxy-ethyl)-dimethyl-sulfonium; iodide]
- Ki [1]: 13 mM

Structure (SMILES): CC(=O)OCCS(C)(=O)=O [Acetic acid 2-methanesulfonyl-ethyl ester]
- Ki [4]: 6.4 mM

Structure (SMILES): C[S+](C)C [Trimethyl-sulfonium; iodide]
- Ki [1]: 7.2 mM
- Ki [2]: 2 mM
